Test results published in patent US11851459B2, “Methods and uses of modulators of anaphase promoting complex (APC) activity for treating cancer” (University of Saskatchewan, priority 2018, dated 2023).

Experiments:
Apc10 = target: T1, Apc10 (Saccharomyces cerevisiae, UniProt P53068); test: Yeast 2-hybrid (Y2H) assay, Apc10 bait; assay type: binding
T1 construct: expressed in transfected cells; host or cells: yeast Y2H cells
T1 sequence (P53068 1-250): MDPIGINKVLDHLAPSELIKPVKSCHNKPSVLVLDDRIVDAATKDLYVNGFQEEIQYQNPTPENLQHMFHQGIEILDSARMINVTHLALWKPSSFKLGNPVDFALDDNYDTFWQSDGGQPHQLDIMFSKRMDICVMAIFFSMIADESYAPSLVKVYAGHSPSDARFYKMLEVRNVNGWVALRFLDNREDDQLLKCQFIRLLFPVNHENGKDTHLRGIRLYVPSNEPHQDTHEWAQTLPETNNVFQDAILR
Protocol: (§1) The reverse genetic screen utilized a yeast 2-hybrid (Y2H) protocol that selected for peptides that bound to the APC subunits Apc5 or Apc10 (see FIG. 8 for APC structure), to assess whether peptide-binding might modify APC function. Peptides that bound APC subunits were then assayed for those that suppressed APC mutant defects.
A library of random small peptides were cloned into a Thioredoxin (Trx) scaffold (see FIG. 9 for Trx-peptide structure) and expressed from a galactose-inducible Y2H prey vector in cells expressing the Apc10 bait vector (the modified Apc10 is still part of the complete APC complex). Six peptides that reproducibly interacted with the Apc10 bait construct in Y2H assays were identified (FIG. 1A) and were examined further. Cells will only grow in this assay if the peptide interacts with Apc5 or Apc10.
To identify peptides that bound to either Apc5 or Apc10 proteins using a yeast 2-hybrid (Y2H) screen, random small peptides were cloned into the TrxA scaffold (library provided by R. Geyer; FIG. 9) and expressed from a galactose-inducible Y2H prey vector in cells harboring either the APC5 or APC10 genes cloned into the Y2H bait vectors (APC5/APC10 bait constructs complement APC mutant defects).
(§2) Over 100 peptides that bound either Apc5 or Apc10 were recovered from millions screened. Six peptides that reproducibly interacted with the Apc5 or Apc10 bait construct in Y2H assays were examined further. Vectors expressing these 6 peptides were transformed into WT or APC mutant cells and assessed for ts growth.

[1] = tested on: apc5 temperature sensitive mutant and/or apc10Δ mutant; test: Viability of APC mutant yeast (spot dilution); assay type: cell-based
Excerpt: Suitable APC activators also include APC activators that increase the cell viability of an wild-type and/or an APC mutant cell by at least 10%, at least 20%, at least 30%, at least 40%, at least 50%, at least 60%, at least 70% or at least 80% compared to a cell with wild-type APC function. […] Examples of yeast cells with defective APC function include apc5 and apc10 mutants. An example of an apc5 mutant is the apc5 temperature sensitive mutant described herein. An example of an apc10 mutant is the apc10 deletion mutant described herein. Viability of a yeast mutant can be measured for example, by the spot dilution assays described herein or any other method known in the art.
as §1, §2

[2] = tested on: APC (substrates Cyclin B, Securin, Cdc20, HURP); test: APC substrate westerns in MDA-MB-231 cells expressing peptides; assay type: cell-based, human
Protocol: A. Transient transfection of the C43-4 peptide plasmid into human triple negative MDA-MB-231 breast cancer cells followed by Western blot analysis of lysates against Cyclin B, Securin and Cdc20 showing enhanced protein loss. B. Cells in A were treated with DOX (1 uM) for 48 hrs with cell viability measured using an MTT assay kit. The experiment was done in triplicate with standard error of the means shown.
A. Stable integration of C43-4 in MDA-MB-231 cells was established by selection of transfected cells on Geneticin for 7 days. Westerns against APC substrates show APC activation. B. Cells in A were treated with DOX (1 uM) for 48 hrs with cell viability measured using an MTT assay kit. Mean and SEM of 3 biological repeats.
A. TNBC MDA-MB-231 cells stably expressing APC binding peptides activate the APC. Cells were grown to confluence and then used to prepare protein lysates. The lysates were used to measure levels of the APC substrate CDC20, which will be reduced if the APC is activated. Cells stably expressing the pcDNA empty vector were used as a control. B. In a similar experiment, MDA-MB-231 cells stably expressing the APC binding peptides shown, or the empty vector control, were used to measure protein levels of the APC substrate HURP using Westerns. C. Triplicate blots as in B were scanned, normalized to tubulin and plotted. Error of the mean is shown. Significant changes are indicated. D. MDA-MB-231 cells stably expressing the empty pcDNA vector, or the C43-4 and C13-3 APC binding peptides, were treated with 1 μM Doxorubicin for 24 hrs. Cell viability was measured using an MTT viability assay.
The C43-4 peptide sequence was cloned into the human expression vector pcDNA. This construct was transiently, and stably, expressed in human breast cancer cell line MDA-MB-231. […] In 231 cells, which are triple negative, aggressive and somewhat resistant to Doxorubicin, the transiently and stably transfected C43-4 peptide resensitized them to DOX treatment (FIGS. 22B and 23B).
In FIG. 26B, MDA-MB-231 cells were also stably transfected with the peptides C1-8, C2-4B, C3-1B, and C9-5. Levels of the APC substrate HURP were measured in lysates prepared from these cells. […] The empty vector pcDNA was also stably expressed in 231 cells and used as a control.

apc10Δ cells = test: apc10Δ temperature sensitive growth, spot dilutions; assay type: cell-based, yeast; settings: 30 and 34° C., weakly expressed on glucose
Excerpt: A. Yeast 2-hybrid (Y2H) cells expressing the APC subunit bait and the galactose inducible Apc10 peptide prey grown on glucose or galactose. Cells co-expressing the Apc5 or Apc10-bait and Apc10 aptamer-prey vectors were spotted onto the appropriate media, in the presence or absence of galactose (the aptamers are Gal inducible), to confirm Y2H interactions. Growth on trp^− his^− media ensures both plasmids are maintained. A Y2H interaction will drive expression of the ADE2 gene, allowing growth on ade^− media. B. Aptamers that bind Apc10 can suppress APC mutant phenotypes. Spot dilutions of apc10Δ cells expressing an empty vector control or the one of 6 Apc10 aptamers tested. Log phase cells were 10-fold serially diluted and spotted onto plates containing either 2% glucose or 2% galactose. The plates were then incubated at 30° C. (permissive temperature) and 34° C. (restrictive stress). C. Peptides identified as binding to the yeast Apc10 APC subunit using the Y2H screen increase growth of wildtype (WT) cells. […]
The six peptide expressing vectors were transformed into apc10Δ cells and assessed for temperature sensitive growth. […]
Over 100 peptides that bound either Apc5 or Apc10 were recovered from millions screened. […] Vectors expressing these 6 peptides were transformed into WT or APC mutant cells and assessed for ts growth.

[3] = transiently transfected MDA-MB-231

| Sequence | binds Apc10 in a yeast 2 hybrid assay (Apc10) | viability of an APC mutant [1] | levels of the APC substrate CDC20 ([2]; MDA-MB-231 stably expressing peptides) | protein levels of CyclinB ([2]; stably transfected MDA-MB-231) | APC substrate Cdc20 [2, 3] | APC substrate Cyclin B [2, 3] | APC substrate Securin [2, 3] | apc10Δ growth phenotype (apc10Δ cells) | levels of the APC substrate HURP ([2]; MDA-MB-231 stably transfected, normalized to tubulin) |
| --- | --- | --- | --- | --- | --- | --- | --- | --- | --- |
| NGSSHNDLRVRRLTLISRLC [C43-4] | Binds Apc10 | increases the viability | reduce levels | reduced protein levels | reduced | reduced | reduced | suppressed the apc10Δ growth phenotype |  |
| RMPQWWQWMWV [C2-4B] | Binds Apc10 | increases the viability of an APC mutant |  |  |  |  |  | suppressed the apc10Δ growth phenotype | Only C1-8 did not reduce HURP levels |
